From US20210212320A1, “FRUIT THINNING METHOD WITH 1-AMINOCYCLOPROPANE CARBOXYLIC ACID” (Valent BioSciences LLC, priority 2021, published 2021)

What was measured:
Sweet Dream peaches = test: Effect of ACC concentration on fruit set of Sweet Dream peaches, applied at full bloom; assay type: in vivo, peach
Description: (§1) Effect of ACC concentration on fruit set (number of fruit per shoot) of Sugar May peaches and Sweet Dream peaches when applied at full bloom

Sugar May peaches = test: Effect of ACC concentration on fruit set of Sugar May peaches, applied at full bloom; assay type: in vivo, peach
Description: as §1

Gala apples = test: Effect of ACC concentration on modulating fruit set of Gala apples; assay type: in vivo, apple
Description: Effect of ACC concentration on modulating fruit set (number of fruit per 100 flower clusters) of Gala apples when applied at petal fall (BBCH67), 10 mm fruit diameter, or 20 mm fruit diameter.

NC1(C(=O)O)CC1 [ACC, 1-aminocyclopropane carboxylic acid]
Number of Fruit Per Shoot (fruit set) (Sweet Dream peaches; ACC 300 parts per million): 12 fruit per shoot
Number of Fruit Per Shoot (fruit set) (Sweet Dream peaches; ACC 600 parts per million): 9 fruit per shoot
Number of Fruit Per Shoot (fruit set) (Sweet Dream peaches; ACC 900 parts per million): 6 fruit per shoot
Number of Fruit Per Shoot (fruit set) (Sugar May peaches; ACC 300 parts per million): 0.7 fruit per shoot
Number of Fruit Per Shoot (fruit set) (Sugar May peaches; ACC 600 parts per million): 0.3 fruit per shoot
Number of Fruit Per Shoot (fruit set) (Sugar May peaches; ACC 900 parts per million): 0.1 fruit per shoot
fruit set (number of fruit per 100 flower clusters) (Gala apples; ACC 224 parts per million, applied at 10 mm fruit diameter): 125 fruit per 100 flower clusters
fruit set (number of fruit per 100 flower clusters) (Gala apples; ACC 224 parts per million, applied at 20 mm fruit diameter): 89 fruit per 100 flower clusters
fruit set (number of fruit per 100 flower clusters) (Gala apples; ACC 224 parts per million, applied at petal fall (BBCH67)): 117 fruit per 100 flower clusters
fruit set (number of fruit per 100 flower clusters) (Gala apples; ACC 450 parts per million, applied at 10 mm fruit diameter): 108 fruit per 100 flower clusters
fruit set (number of fruit per 100 flower clusters) (Gala apples; ACC 450 parts per million, applied at 20 mm fruit diameter): 46 fruit per 100 flower clusters
fruit set (number of fruit per 100 flower clusters) (Gala apples; ACC 450 parts per million, applied at petal fall (BBCH67)): 96 fruit per 100 flower clusters
fruit set (number of fruit per 100 flower clusters) (Gala apples; ACC 900 parts per million, applied at 10 mm fruit diameter): 63 fruit per 100 flower clusters
fruit set (number of fruit per 100 flower clusters) (Gala apples; ACC 900 parts per million, applied at 20 mm fruit diameter): 12 fruit per 100 flower clusters
fruit set (number of fruit per 100 flower clusters) (Gala apples; ACC 900 parts per million, applied at petal fall (BBCH67)): 72 fruit per 100 flower clusters
